Laboratory results as given in patent US11701369B2, “Polymeric bile acid derivatives inhibit Hepatitis B and D virus and NTCP transport” (Huahui Health Ltd., priority 2014, dated 2023).
“Also recorded” adds a separate entry of the source. Where two headings read alike, the source gives them in different places.

Columns and labels:
NTCP [1] = target: T1, NTCP (Homo sapiens, UniProt Q14973); experiment: FITC-preS1 peptide binding assay; conditions: HepG2-NTCP cells; pretreatment versus co-incubation, 3 hrs
T1 construct: expressed in transfected cells
T1 sequence (Q14973 1-349): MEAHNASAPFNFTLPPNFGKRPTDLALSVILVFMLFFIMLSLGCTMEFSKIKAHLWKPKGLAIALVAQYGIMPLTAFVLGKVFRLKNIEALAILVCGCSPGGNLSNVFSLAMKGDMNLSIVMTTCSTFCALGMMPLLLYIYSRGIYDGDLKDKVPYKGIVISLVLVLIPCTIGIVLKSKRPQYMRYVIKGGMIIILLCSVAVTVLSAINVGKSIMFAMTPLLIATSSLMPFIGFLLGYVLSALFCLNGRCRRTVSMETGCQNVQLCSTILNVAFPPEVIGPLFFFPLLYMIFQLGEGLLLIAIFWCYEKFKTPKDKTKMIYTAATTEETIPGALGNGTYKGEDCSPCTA
Procedure: FITC-preS1 peptide binding assay. NTCP expressing cells were cultured in PTH maintenance medium (PMM) for 24 hrs before conducting this assay. For Immunofluorescence microscopy, cells were incubated with 400 nM FITC-pre-S1 peptide diluted in WME or PMM at 37° C. for about 2-3 hrs. Subsequently, cells were washed once by WME, and then directly visualized with a Fluorescence Microscope.

NTCP [2] = target: T1, NTCP; experiment: [3H] taurocholate uptake assay on HepG2-NTCP cells; assay type: cell-based
Procedure: [3H] substrate uptake assay. [3H]taurocholate uptake assay was conducted following a protocol as previously described(60). In general, HepG2-NTCP cells were cultured in PMM for 12-24 hrs, then were treated with or without indicated chemicals before uptake assay. For substrate uptake assay, cells were generally incubated with 0.5 μl (0.5 μCi) [3H]-taurocholate dissolved in Na+ Ringer's solutions for 10 mins at 37° C. with or without the presence of chemicals. Subsequently, cells were washed once by PBS and lysed by 100 μl of 1% TritonX-100 in H2O for 5 mins at room temperature. The lysate was transferred into liquid scintillation tube and mixed with 900 μl liquid scintillation cocktail (Ultima GOLD™ XR) (Perkin Elmer, USA). Liquid scintillation counting was performed on a Perkin Elmer 1450 LSC Liquid Scintillation Counter and Luminescence Counter.

HDV = HDV infection assay on HepG2-NTCP cells (intracellular delta antigen staining); assay type: cell-based, Hepatitis D virus
Procedure: (§1) HBV and HDV infection assay. HepG2NTCP Cells were cultured in PMM for 12-24 hrs before infection, and then inoculated with 200 multiplicities of genome equivalents (mge) of HBV, or 500 mge of HDV in the presence of 5% PEG8000 in PMM at 37° C. for about 24 hrs. Chemicals to be tested were added to the cells as indicated in the specific assays. The inoculum was replenished by PMM post infection. The infections were detected at day 5 post infection (dpi).
Immunostaining assay. For HBV infection, infected cells were washed twice with PBS and fixed in 3.7% paraformaldehyde (PFA) at room temperature for 10 mins. Subsequently, cells were permeabilized with 0.5% Trition X-100/PBS for 10 mins at room temperature, blocked with 3% BSA at 37° C. for 1 hour, and followed by incubating with 5 μg/ml mouse mAb1C10 which recognizes HBcAg, and followed by staining with FITC-conjugated secondary antibody. Nucleus was stained with DAPI in blue. The stained cells were imaged with the fluorescence microscope (Nikon). For HDV infection, on 5 dpi, HDV infected cells were fixed with 100% methanol at room temperature for 10 mins, intracellular delta antigens were then stained with 5 μg/ml of FITC conjugated 4G5 and nucleus were stained with DAPI in blue. Images were collected by an Eclipse Ti Fluorescence Microscope (Nikon) and a representative picture is shown.

HBV [3] = experiment: HBV infection assay on HepG2-NTCP cells (secreted HBeAg by ELISA); assay type: cell-based, Hepatitis B virus
Procedure: as §1
ELISA assay for the detection of HBeAg and HBsAg. ELISA kits for HBeAg and HBsAg detection were from Wantai Pharm Inc. (Beijing, China). Supernatant from infected HepG2NTCP cells was collected on 2-5 days post infection. The secreted HBeAg and HBsAg in the culture medium was measured with a commercial kit from Wantai Pharm Inc (Beijing, China) by following the manufactory's instructions.

HBV [4] = experiment: In vitro stability: incubation with HBV inocula before infection, HBeAg ELISA; assay type: cell-based, Hepatitis B virus; conditions: incubated with HBV inocula for different times before infection, HBeAg at 5 dpi
Procedure: FIG. 10 The influence of the linkage groups on the in vitro stability of PBADs. TUDCA, NQL018, NQL044, and NQL055 were incubated with HBV inocula of different times before viral infection, and present in the inocula during infection period. The level of secreted HBeAg was detected by ELISA at 5 dpi.
The in vitro stability of PBADs could PBADs could be enhanced by optimization of the linkage bond. We conducted stability analysis of several PBADs with similar structure but of different linkage. […] This indicates the in vitro and in vivo stability is to a large extent determined by the feature of the linkage groups.

HepG2-NTCP cells = experiment: In vitro cytotoxicity on HepG2-NTCP cell line; assay type: cell-based; conditions: human, 48 h
Procedure: FIG. 6 Toxicity of 3UT(NQL-012), DiU(NQL-009) and 3TPT(NQL-018) in cell cultures. HepG2-NTCP cells were incubated with 3UT(NQL-012), DiU(NQL-009) or 3TPT(NQL-018) at indicated concentrations for 48 hrs, cell viability was evaluated and images were captured at 5 dpi.
In vitro cytotoxicity of PBADs. We also conducted experiments to determine the LD50 on HepG2-NTCP cell line of the three PBADs (3-UT (NQL-012), DIU (NQL-009), 3TPT (NQL-018)). We treated cells by different concentrations of PBADs for 48 hrs and captured the images of cells after they were further cultured for 3 days in PMM. […] No detectable cytotoxicity was observed upon treatment of DIU(NQL-009) and 3TPT(NQL-018) up to 200 μM, which is 2000-4000 folds higher than its inhibitory concentration for HBV infection.

HBV [5] = experiment: HBV infection assay on HepaRG cells (HBsAg and HBeAg ELISA); assay type: cell-based, Hepatitis B virus; conditions: HBsAg and HBeAg at 5 dpi
Procedure: FIG. 11 HepaRG cells were infected with HBV in the presence of indicated PBADs. The level of secreted HBsAg and HBeAg was detected by ELISA at 5 dpi.
The antiviral potency of PBADs is also repeatable on other HBV infection system (HepaRG) with similar inhibition profile. […] HBV infection was conducted in the presence of NQL028, NQL018, NQL029, NQL019 and NQL021, all of which were bis-ester based PBADs with different linkage length.

Q: Which results are given for `C[C@H](CCC(=O)NCCS(=O)(=O)O)[C@H]1CC[C@H]2[C@@H]3[C@@H](O)CC4C[C@H](OC(=O)CCCC(=O)O[C@@H]5CC[C@@]6(C)C(C5)C[C@H](O)[C@H]5[C@@H]7CC[C@H]([C@H](C)CCC(=O)NCCS(=O)(=O)O)[C@@]7(C)CC[C@@H]56)CC[C@]4(C)[C@H]3CC[C@]12C` (stereo in doubt) [NQL-018]?
A: blocking of FITC-preS1 binding to NTCP (in words) (NTCP [1]): effect of pretreatment of 3TPT(NQL-018) was not as strong as that of co-incubation; inhibition of NTCP substrate uptake (in words) (NTCP [2]; co-incubation assay, [3H] taurocholate, 10 min): significantly higher efficiency than that of TUDCA; IC50 (NTCP [2]; pretreatment assay, HepG2-NTCP cells pretreated 2 hrs before uptake assay, read-out: IC50 for inhibiting NTCP-mediated [3H] taurocholate uptake): 58.7 nM; inhibition of HDV infection (in words) (HDV): high antiviral activity; also recorded: greatly improved potency; inhibition of HBV infection (in words) (HBV [3]; HepG2-NTCP cells, secreted HBeAg): high antiviral activity; also recorded: greatly improved potency; IC50 (HBV [3]; Hepatitis B virus, read-out: IC50 for inhibiting HBV infection, HepG2-NTCP cells, PBAD present during infection, HBeAg in medium at 5 dpi): 51 nM; IC50 (HBV [3]; read-out: IC50 for inhibiting HBV infection, HepG2-NTCP cells, PBAD present during infection, HBeAg in medium at 5 dpi): 51 nM; in vitro stability (antiviral potency after long incubation with the inoculum) (HBV [4]): not stable upon long time incubation with the inoculum; also recorded: decreased activity after long time incubation; concentration up to which no detectable cytotoxicity was observed (HepG2-NTCP cells): 200 µM; inhibition of HBV infection on HepaRG cells (in words) (HBV [5]): inhibited HBV infection
